The source of these data is BindingDB's records for patent US20240342186 (Boehringer Ingelheim International, 2024).

The target in the assay is Cyclic GMP-AMP synthase (Homo sapiens, UniProt Q8N884). The assay is described as follows: Biochemical (In Vitro) Assay.
Chain of Cyclic GMP-AMP synthase (Q8N884 whole entry): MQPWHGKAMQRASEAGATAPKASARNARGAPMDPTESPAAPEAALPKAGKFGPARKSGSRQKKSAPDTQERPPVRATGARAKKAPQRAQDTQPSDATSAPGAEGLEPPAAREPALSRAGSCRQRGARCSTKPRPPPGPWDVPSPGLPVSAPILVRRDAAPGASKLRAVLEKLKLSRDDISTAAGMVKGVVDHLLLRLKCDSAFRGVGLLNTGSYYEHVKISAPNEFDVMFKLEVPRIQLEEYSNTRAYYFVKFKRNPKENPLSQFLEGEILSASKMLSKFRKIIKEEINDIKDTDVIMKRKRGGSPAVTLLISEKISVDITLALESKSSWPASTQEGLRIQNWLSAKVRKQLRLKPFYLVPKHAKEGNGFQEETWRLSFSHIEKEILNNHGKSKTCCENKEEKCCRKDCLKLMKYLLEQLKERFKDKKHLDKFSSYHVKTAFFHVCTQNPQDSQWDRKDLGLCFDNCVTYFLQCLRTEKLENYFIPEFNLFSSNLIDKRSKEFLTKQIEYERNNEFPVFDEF

As for `CC1(C#N)CCCN(c2cc(Cl)cnc2O[C@H]2C[C@@H](C(=O)O)N(c3nc(C(F)F)nc4c3oc3ccccc34)C2)C1` (stereo partly drawn) [US20240342186, Example 1.04], the IC50 (as a rule, the midpoint of a concentration-inhibition curve) was 6 nM.
Regarding `C#Cc1cnc(O[C@H]2C[C@@H](C(=O)O)N(c3nc(C(F)F)nc4c3oc3ccccc34)C2)c(N2CCOC3(COC3)C2)c1` [US20240342186, Example 1.25], the 50% inhibitory concentration (IC50) is 4 nM.
The same measure for `O=C(O)[C@@H]1C[C@H](Oc2ncc(Br)cc2N2CCOC3(COC3)C2)CN1c1nc(C(F)F)nc2c1oc1ccccc12` [US20240342186, Example 1.24]: 9 nM.
